In series [1] the test system is bacteria on the udder and teat areas. The series can be described thus: sanitizing the udder and teat areas with a solution of TCM. Type of series: in vivo. An excerpt: This invention relates to the use of trichloromelamine as an active agent for sanitizing the udder and teat areas of cows. Like bleach TCM produces the Cl+ ion which is capable of killing a wide spectrum of bacteria. […] Solutions of sodium hypochlorite are generally not suitable for use on living tissue. […] The process of this invention is effected by spraying the udder and teat areas of a bovine with a solution of TCM. The process may be further effected by dipping the udder and teat areas in a solution of TCM. The process of this invention effectively kills all bacteria as may be on the udder and teat areas of a bovine in less than one minute.

For series [2] the following is noted: bovine, in vivo. An excerpt:
This invention relates to the use of trichloromelamine as an active agent for sanitizing the udder and teat areas of cows. Like bleach TCM produces the Cl+ ion which is capable of killing a wide spectrum of bacteria. […] Solutions of sodium hypochlorite are generally not suitable for use on living tissue.

The values below come from patent publication US7344727B2, “Process for cleaning bovine teats” (H&S Chemical Company, Inc., priority 2002, dated 2008).

Consider trichloromelamine [TCM], for which the “residual effect on the udder and teat areas” value in series [1] (residual TCM left after treatment) is “inhibits future bacterial contamination”. The “time to kill the troublesome bacteria” value in series [1] (soft living tissue treated in accordance with the invention) is recorded as “killed in a matter of seconds”. Also, the “effect on treated living tissue” value in series [2] is given as “not adversely affected”.
